Results from patent US20030140370A1, “Fungal glyoxal oxidases” (priority 2001, published 2003).

These molecules were tested on Venturia inaequalis (assay: Venturia inaequalis (apple scab) protective test on young plants). Settings: protective action, concentration of 250 ppm; 0% = control, 100% = no disease observed.
Format: in vivo
Description: The antifungal action of the compounds (protective action) was tested, inter alia, on Venturia inaequalis as an example. This fungus causes what is known as apple scab, which leads to black and green mottled leaves in pomaceous fruit trees. The lesions enlarge and coalesce. Leaves which are severely infested die, which may lead to the trees losing all their leaves in summer. The infection also has an adverse effect on fruit set. Scab on fruits manifests itself in grey lesions on the skin, with suberification and deformed fruits.
To prepare a suitable preparation of active compound, 1 part by weight of active compound is mixed with, for example, 24.5 parts by weight of acetone and 24.5 parts by weight of dimethylformamide and 1.0 part by weight of alkylaryl polyglycol ether as emulsifier, and the concentrate is diluted with water to the desired concentration.
To test for protective activity, young plants are sprayed with the preparation of the active compound at the application rate stated. After the spray coating has dried on, the plants are inoculated with an aqueous conidial suspension of the apple scab pathogen Venturia inaequalis and then remain in an incubation cabinet for 1 day at approximately 20° C. and 100% relative atmospheric humidity. […]
1 to 12 days post-inoculation, the test is evaluated. […]

SMILES	efficacy
C[Si](C)(C)O[Si](C)(CCCNC(=O)/C=C\c1cc(OC(O)C(O)C(O)C(O)CO)c(O)cc1O)O[Si](C)(C)C (stereo not drawn) [Example 4]	45%

These molecules were tested against glyoxal oxidase (Glo1) (Ustilago maydis, UniProt Q7Z868) (assay: Enzyme assay for identifying glyoxal oxidase inhibitors (Amplex Red/HRP coupled, cells of overproducer strain Bay-CA95)). Settings: negative decimal logarithm of molar IC50; intact Bay-CA95 cells, 10 mM methylglyoxal, 9 hours at 30° C., fluorescence 550/595 nm; read-out: pI50 (converted).
glyoxal oxidase (Glo1), sequence (Q7Z868 entry or part of it): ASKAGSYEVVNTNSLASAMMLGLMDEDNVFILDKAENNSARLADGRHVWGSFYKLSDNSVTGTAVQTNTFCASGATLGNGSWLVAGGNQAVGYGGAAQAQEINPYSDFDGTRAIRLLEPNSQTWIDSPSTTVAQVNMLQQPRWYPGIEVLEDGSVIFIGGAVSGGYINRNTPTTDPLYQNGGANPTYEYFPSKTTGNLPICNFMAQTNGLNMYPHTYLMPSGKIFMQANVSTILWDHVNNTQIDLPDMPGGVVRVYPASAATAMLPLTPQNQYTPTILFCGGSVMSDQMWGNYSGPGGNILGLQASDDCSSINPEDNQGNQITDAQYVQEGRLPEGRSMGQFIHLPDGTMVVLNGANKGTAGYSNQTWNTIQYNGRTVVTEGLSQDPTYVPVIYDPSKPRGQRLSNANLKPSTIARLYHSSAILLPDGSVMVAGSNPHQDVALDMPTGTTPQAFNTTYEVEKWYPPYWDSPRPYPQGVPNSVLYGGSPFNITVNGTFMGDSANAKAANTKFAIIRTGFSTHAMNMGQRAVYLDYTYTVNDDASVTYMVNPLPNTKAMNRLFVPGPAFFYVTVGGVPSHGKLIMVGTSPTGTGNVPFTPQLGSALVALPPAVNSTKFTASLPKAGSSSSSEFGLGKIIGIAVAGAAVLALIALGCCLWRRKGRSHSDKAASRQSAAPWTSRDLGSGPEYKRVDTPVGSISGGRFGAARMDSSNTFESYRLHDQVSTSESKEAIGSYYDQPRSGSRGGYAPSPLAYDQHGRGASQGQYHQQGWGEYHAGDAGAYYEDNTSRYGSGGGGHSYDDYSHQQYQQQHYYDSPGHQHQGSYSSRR
Format: biochemical
Description: The activity of glyoxal oxidase in vitro and in vivo, for example in the U. maydis cells according to the invention produced as described in Example 3 (CA95) can be detected on the basis of the conversion of the substrate methylglyoxal, exploiting the following reaction:
Methylglyoxal+O2→pyruvate+H2O2
H2O2+10-acetyl-3,7-dihydroxyphenoxazine (Amplex Red®)→resorufin+H2O
Amplex Red® reacts with H2O2 in a 1:1 stoichiometry, giving rise to resorufin (7-hydroxy-3H-phenoxazin-3-one sodium salt). The fluorescence is measured at an excitation wavelength of 550 nm and an emission of 595 nm. A substrate concentration of 10 mM methylglyoxal was employed in the assay. When using intact cells, it must be taken into consideration that the glyoxal oxidase concentration is low and that the reaction must therefore be allowed to proceed longer. Thus, for example, very good readings were obtained after incubation for 9 hours.
The enzyme assay was carried out in a total volume of 50 μl. To this end, the substances to be assayed were introduced in 10 μl substrate solution (50 mM methylglyoxal, 2.5% (v/v) DMSO) into a 384 microtitre plate. The KM value of glyoxal oxidase for methylglyoxal had previously been determined (cf. FIG. 14). The concentration of the candidate compounds to be tested for an inhibitory effect was such that the final concentration of the substances in the assay carried out was 10 μM. In the next step, 20 μl of cell solultion (cells of the overproducer strain Bay-CA95 (OD600=5); 0.2 M 2,2-dimethyl succinate buffer, pH 5, cooled at 4° C.) were added. 20 μl of detection solution (125 μM Amplex Red™ reagent (20 mM stock solution in 100% DMSO), 2.5 U/ml horseradish peroxidase, 62.5 mM sodium phosphate buffer, pH 7.4) were added to the mixture. The mixture was incubated for 9 hours at 30° C. Then, the increase in fluorescence was measured at λ=550 nm (absorption) and λ=595 nm (emission), the results of a measurement in the presence of Bay-CA95 cells being compared with the results of a measurement in the presence of the wild-type U. maydis 518 cells (see also FIG. 15). The substances used in the assay were present in the following final concentrations: c(2,2-dimethyl succinate/NaOH)=40 mM, c(Amplex Red® (Molecular Probes))=50 μM, c(horseradish peroxidase)=0.001 U/μl, c(methylglyoxal)=10 mM, OD (Bay-CA95)=1, c(sodium phosphate buffer)=25 mM. The inhibitory effect of a candidate compound could be seen from the decrease in relative fluorescence, and inhibitors were identified. […] Table II also gives pI50 values which have been determined for the individual compounds. The pI50 value is the negative decimal logarithm of what is known as the IC50 value, which indicates the molar concentration of a substance which leads to 50% inhibition of the enzyme. For example, a pI50 value of 8 corresponds to half the maximum inhibition of the enzyme at a concentration of 10 nM.

SMILES	IC50
COc1ccc(C(=O)Nc2ccccc2)cc1N [Example 1]	11 µM
CCOc1ccc(NCc2ccccc2O)cc1 [Example 2]	4.07 µM
Nc1ccc(Oc2ccc(N)cc2)cc1 [Example 3]	5.62 µM
C[Si](C)(C)O[Si](C)(CCCNC(=O)/C=C\c1cc(OC(O)C(O)C(O)C(O)CO)c(O)cc1O)O[Si](C)(C)C (stereo not drawn) [Example 4]	3.8 µM
COc1ccc(NCc2ccccc2O)cc1 [Example 5]	3.98 µM
